{
  "source": "the NIST ThermoML archive (doi:10.1016/j.jct.2018.04.015)",
  "assay": "mn = molality of the nth substance listed, in mol/kg",
  "conditions": "100 kPa, Liquid; for viscosity: Capillary tube (Ostwald / Ubbelohde) method; for mass density: Vibrating tube method",
  "note": "± gives the expanded uncertainty stated by the source.",
  "data": [
    {"smiles": "C[N+](C)(C)CCO.[Cl-]", "note": "[choline chloride] + O", "values": [
      {"measurement": "viscosity", "setting": "293.15 K, m1 = 0.09081", "result": "1.034 ± 0.022", "unit": "mPa·s"},
      {"measurement": "viscosity", "setting": "293.15 K, m1 = 0.1494", "result": "1.049 ± 0.022", "unit": "mPa·s"},
      {"measurement": "viscosity", "setting": "293.15 K, m1 = 0.2056", "result": "1.062 ± 0.022", "unit": "mPa·s"},
      {"measurement": "viscosity", "setting": "293.15 K, m1 = 0.2998", "result": "1.082 ± 0.023", "unit": "mPa·s"},
      {"measurement": "viscosity", "setting": "293.15 K, m1 = 0.3511", "result": "1.093 ± 0.023", "unit": "mPa·s"},
      {"measurement": "viscosity", "setting": "293.15 K, m1 = 0.4226", "result": "1.107 ± 0.023", "unit": "mPa·s"},
      {"measurement": "viscosity", "setting": "293.15 K, m1 = 0.489", "result": "1.119 ± 0.023", "unit": "mPa·s"},
      {"measurement": "mass density", "setting": "293.15 K, m1 = 0.08502", "result": "999.63 ± 1.5", "unit": "kg/m3"},
      {"measurement": "mass density", "setting": "293.15 K, m1 = 0.15", "result": "1000.68 ± 1.5", "unit": "kg/m3"},
      {"measurement": "mass density", "setting": "293.15 K, m1 = 0.2002", "result": "1001.48 ± 1.5", "unit": "kg/m3"},
      {"measurement": "mass density", "setting": "293.15 K, m1 = 0.2501", "result": "1002.25 ± 1.5", "unit": "kg/m3"},
      {"measurement": "mass density", "setting": "293.15 K, m1 = 0.3003", "result": "1003.03 ± 1.5", "unit": "kg/m3"},
      {"measurement": "mass density", "setting": "293.15 K, m1 = 0.3503", "result": "1003.78 ± 1.5", "unit": "kg/m3"},
      {"measurement": "mass density", "setting": "293.15 K, m1 = 0.3997", "result": "1004.52 ± 1.5", "unit": "kg/m3"},
      {"measurement": "mass density", "setting": "293.15 K, m1 = 0.4502", "result": "1005.27 ± 1.5", "unit": "kg/m3"},
      {"measurement": "mass density", "setting": "293.15 K, m1 = 0.499", "result": "1005.99 ± 1.5", "unit": "kg/m3"},
      {"measurement": "viscosity", "setting": "298.15 K, m1 = 0.09081", "result": "0.916 ± 0.019", "unit": "mPa·s"},
      {"measurement": "viscosity", "setting": "298.15 K, m1 = 0.1494", "result": "0.929 ± 0.019", "unit": "mPa·s"},
      {"measurement": "viscosity", "setting": "298.15 K, m1 = 0.2056", "result": "0.941 ± 0.02", "unit": "mPa·s"},
      {"measurement": "viscosity", "setting": "298.15 K, m1 = 0.2998", "result": "0.959 ± 0.02", "unit": "mPa·s"},
      {"measurement": "viscosity", "setting": "298.15 K, m1 = 0.3511", "result": "0.968 ± 0.02", "unit": "mPa·s"},
      {"measurement": "viscosity", "setting": "298.15 K, m1 = 0.4226", "result": "0.981 ± 0.02", "unit": "mPa·s"},
      {"measurement": "viscosity", "setting": "298.15 K, m1 = 0.489", "result": "0.993 ± 0.021", "unit": "mPa·s"},
      {"measurement": "mass density", "setting": "298.15 K, m1 = 0.08502", "result": "998.44 ± 1.5", "unit": "kg/m3"},
      {"measurement": "mass density", "setting": "298.15 K, m1 = 0.15", "result": "999.47 ± 1.5", "unit": "kg/m3"},
      {"measurement": "mass density", "setting": "298.15 K, m1 = 0.2002", "result": "1000.25 ± 1.5", "unit": "kg/m3"},
      {"measurement": "mass density", "setting": "298.15 K, m1 = 0.2501", "result": "1001 ± 1.5", "unit": "kg/m3"},
      {"measurement": "mass density", "setting": "298.15 K, m1 = 0.3003", "result": "1001.75 ± 1.5", "unit": "kg/m3"},
      {"measurement": "mass density", "setting": "298.15 K, m1 = 0.3503", "result": "1002.49 ± 1.5", "unit": "kg/m3"},
      {"measurement": "mass density", "setting": "298.15 K, m1 = 0.3997", "result": "1003.22 ± 1.5", "unit": "kg/m3"},
      {"measurement": "mass density", "setting": "298.15 K, m1 = 0.4502", "result": "1003.94 ± 1.5", "unit": "kg/m3"},
      {"measurement": "mass density", "setting": "298.15 K, m1 = 0.499", "result": "1004.64 ± 1.5", "unit": "kg/m3"},
      {"measurement": "viscosity", "setting": "303.15 K, m1 = 0.09081", "result": "0.819 ± 0.017", "unit": "mPa·s"},
      {"measurement": "viscosity", "setting": "303.15 K, m1 = 0.1494", "result": "0.831 ± 0.017", "unit": "mPa·s"},
      {"measurement": "viscosity", "setting": "303.15 K, m1 = 0.2056", "result": "0.841 ± 0.018", "unit": "mPa·s"},
      {"measurement": "viscosity", "setting": "303.15 K, m1 = 0.2998", "result": "0.858 ± 0.018", "unit": "mPa·s"},
      {"measurement": "viscosity", "setting": "303.15 K, m1 = 0.3511", "result": "0.867 ± 0.018", "unit": "mPa·s"},
      {"measurement": "viscosity", "setting": "303.15 K, m1 = 0.4226", "result": "0.878 ± 0.018", "unit": "mPa·s"},
      {"measurement": "viscosity", "setting": "303.15 K, m1 = 0.489", "result": "0.889 ± 0.019", "unit": "mPa·s"},
      {"measurement": "mass density", "setting": "303.15 K, m1 = 0.08502", "result": "997.02 ± 1.5", "unit": "kg/m3"},
      {"measurement": "mass density", "setting": "303.15 K, m1 = 0.15", "result": "998.03 ± 1.5", "unit": "kg/m3"},
      {"measurement": "mass density", "setting": "303.15 K, m1 = 0.2002", "result": "998.79 ± 1.5", "unit": "kg/m3"},
      {"measurement": "mass density", "setting": "303.15 K, m1 = 0.2501", "result": "999.53 ± 1.5", "unit": "kg/m3"},
      {"measurement": "mass density", "setting": "303.15 K, m1 = 0.3003", "result": "1000.27 ± 1.5", "unit": "kg/m3"},
      {"measurement": "mass density", "setting": "303.15 K, m1 = 0.3503", "result": "1000.99 ± 1.5", "unit": "kg/m3"},
      {"measurement": "mass density", "setting": "303.15 K, m1 = 0.3997", "result": "1001.7 ± 1.5", "unit": "kg/m3"},
      {"measurement": "mass density", "setting": "303.15 K, m1 = 0.4502", "result": "1002.41 ± 1.5", "unit": "kg/m3"},
      {"measurement": "mass density", "setting": "303.15 K, m1 = 0.499", "result": "1003.08 ± 1.5", "unit": "kg/m3"},
      {"measurement": "viscosity", "setting": "308.15 K, m1 = 0.09081", "result": "0.737 ± 0.015", "unit": "mPa·s"},
      {"measurement": "viscosity", "setting": "308.15 K, m1 = 0.1494", "result": "0.748 ± 0.016", "unit": "mPa·s"},
      {"measurement": "viscosity", "setting": "308.15 K, m1 = 0.2056", "result": "0.757 ± 0.016", "unit": "mPa·s"},
      {"measurement": "viscosity", "setting": "308.15 K, m1 = 0.2998", "result": "0.772 ± 0.016", "unit": "mPa·s"},
      {"measurement": "viscosity", "setting": "308.15 K, m1 = 0.3511", "result": "0.78 ± 0.016", "unit": "mPa·s"},
      {"measurement": "viscosity", "setting": "308.15 K, m1 = 0.4226", "result": "0.791 ± 0.017", "unit": "mPa·s"},
      {"measurement": "viscosity", "setting": "308.15 K, m1 = 0.489", "result": "0.801 ± 0.017", "unit": "mPa·s"},
      {"measurement": "mass density", "setting": "308.15 K, m1 = 0.08502", "result": "995.39 ± 1.5", "unit": "kg/m3"},
      {"measurement": "mass density", "setting": "308.15 K, m1 = 0.15", "result": "996.38 ± 1.5", "unit": "kg/m3"},
      {"measurement": "mass density", "setting": "308.15 K, m1 = 0.2002", "result": "997.13 ± 1.5", "unit": "kg/m3"},
      {"measurement": "mass density", "setting": "308.15 K, m1 = 0.2501", "result": "997.85 ± 1.5", "unit": "kg/m3"},
      {"measurement": "mass density", "setting": "308.15 K, m1 = 0.3003", "result": "998.57 ± 1.5", "unit": "kg/m3"},
      {"measurement": "mass density", "setting": "308.15 K, m1 = 0.3503", "result": "999.27 ± 1.5", "unit": "kg/m3"},
      {"measurement": "mass density", "setting": "308.15 K, m1 = 0.3997", "result": "999.95 ± 1.5", "unit": "kg/m3"},
      {"measurement": "mass density", "setting": "308.15 K, m1 = 0.4502", "result": "1000.64 ± 1.5", "unit": "kg/m3"},
      {"measurement": "mass density", "setting": "308.15 K, m1 = 0.499", "result": "1001.3 ± 1.5", "unit": "kg/m3"},
      {"measurement": "viscosity", "setting": "313.15 K, m1 = 0.09081", "result": "0.668 ± 0.014", "unit": "mPa·s"},
      {"measurement": "viscosity", "setting": "313.15 K, m1 = 0.1494", "result": "0.678 ± 0.014", "unit": "mPa·s"},
      {"measurement": "viscosity", "setting": "313.15 K, m1 = 0.2056", "result": "0.686 ± 0.014", "unit": "mPa·s"},
      {"measurement": "viscosity", "setting": "313.15 K, m1 = 0.2998", "result": "0.7 ± 0.015", "unit": "mPa·s"},
      {"measurement": "viscosity", "setting": "313.15 K, m1 = 0.3511", "result": "0.708 ± 0.015", "unit": "mPa·s"},
      {"measurement": "viscosity", "setting": "313.15 K, m1 = 0.4226", "result": "0.718 ± 0.015", "unit": "mPa·s"},
      {"measurement": "viscosity", "setting": "313.15 K, m1 = 0.489", "result": "0.728 ± 0.015", "unit": "mPa·s"},
      {"measurement": "mass density", "setting": "313.15 K, m1 = 0.08502", "result": "993.55 ± 1.5", "unit": "kg/m3"},
      {"measurement": "mass density", "setting": "313.15 K, m1 = 0.15", "result": "994.52 ± 1.5", "unit": "kg/m3"},
      {"measurement": "mass density", "setting": "313.15 K, m1 = 0.2002", "result": "995.25 ± 1.5", "unit": "kg/m3"},
      {"measurement": "mass density", "setting": "313.15 K, m1 = 0.2501", "result": "995.96 ± 1.5", "unit": "kg/m3"},
      {"measurement": "mass density", "setting": "313.15 K, m1 = 0.3003", "result": "996.66 ± 1.5", "unit": "kg/m3"},
      {"measurement": "mass density", "setting": "313.15 K, m1 = 0.3503", "result": "997.34 ± 1.5", "unit": "kg/m3"},
      {"measurement": "mass density", "setting": "313.15 K, m1 = 0.3997", "result": "998 ± 1.5", "unit": "kg/m3"},
      {"measurement": "mass density", "setting": "313.15 K, m1 = 0.4502", "result": "998.67 ± 1.5", "unit": "kg/m3"},
      {"measurement": "mass density", "setting": "313.15 K, m1 = 0.499", "result": "999.3 ± 1.5", "unit": "kg/m3"}
    ]}
  ]
}
